The text below walks through data of US4684650A, “Antihypertensive fluorophenylindanyl imidazolidinoneethylpiperazines” (priority 1984, dated 1987).

Read-outs that look alike come from different tables or passages of the source.

Assay [1] concerns phenylephrine pressor responses. As to the kind of experiment: Antagonism to phenylephrine pressor responses in pithed rats. Conditions: for ED50: Rattus norvegicus, iv, read-out: Effects on pressor response of Phenylephrine, ED50; for Phenylephr. antg./5-HT antg. (ratio): pithed rats, ratio of phenylephrine ED50 to 5-HT ED50. Format: in vivo. How it is done: (§1) The rat is anaesthetized with ether, tracheotomized, artificial respired and pithed. The knitting-needle is introduced through the right orbita into the cranial cavity and passed through foramen magnum into the spinal canal as far as possible. The spinal cord is destroyed by turning the needle. After vagotomi both carotides are ligated and a catheter placed in the right one for pressure recording. The rat is adrenalectomized. […] The initial and post medication mean pressor effect is calculated, and the mean pressor effect is calculated as % of the initial value. Two to five preparations are employed for each dose level. The ED50 is determined.

For a further assay, the target named is T1, 5-HT2 receptors (Rattus norvegicus, UniProt P14842).
T1 construct: Rat whole cortex was homogenized by an Ultra Turrax homogenizer; from tissue; host or cells: rat whole cerebral cortex, crude washed membranes
As to the kind of experiment: 3H-spiroperidol binding to 5-HT2 receptors. The settings on record: rat whole cortex, 0.5 nM 3H-spiroperidol, 0.3 μM sulpiride; read-out: 3H-SPI binding 5-HT2 IC50. As for the experimental part: ^3 H-spiroperidol binding to 5-HT2 receptors.
Rat whole cortex was homogenized by an Ultra Turrax homogenizer in 100 vol. of 50 mM Tris buffer pH 7.7. The homogenate was centrifuged at 20,000 g for 10 minutes at 4° C. The pellet was rehomogenized in another volume of buffer and centrifuged as mentioned above. The final pellet was rehomogenized in 50 mM Tris buffer pH 7.7 containing 120 mM NaCl, 5 mM KCl, 2 mM CaCl2 and 1 mM MgCl2 (ion mix) in a volume corresponding to 12.5 mg original tissue per ml.
Test drugs were dissolved in water; ^3 H-spiroperidol (NEN, 28-30 Ci/mmol) was diluted in 3 μM sulpiride, and 800 μl membrane suspension were added. Final concentration of ligand and sulpiride were 0.5 nM and 0.3 μM, respectively. The samples were incubated at 37° C. for 10 min. The samples were then filtered under vacuum through Whatman GF/B glass-fiber filters. The tubes were then rinsed with 5 ml incubation buffer, which was poured on the filters. The filters were finally washed twice with 5 ml buffer and placed in counting vials. After addition of 5 ml scintillation fluid (Lumagel) radioactivity was estimated by liquid scintillation counting. Non-specific binding was obtained by adding Mianserin (1 μM) to separate samples. Each drug was tested at least twice at 5 concentrations in triplicate. IC50-values were determined from log concentration-response curves.--The presence of sulpiride excluded binding to dopamine D-2 receptors.

Another assay deals with 5-HT pressor responses. As to the kind of experiment: Antagonism to 5-HT pressor responses in pithed rats. It counts as in vivo. The settings on record: for change in vivo at 0.02 mg/kg / ED50: Rattus norvegicus, iv; for change in vivo at 0.02 mg/kg: read-out: Effects on pressor response of 5-HT, % eff. of 0.02 mg/kg, pithed rats, 0.02 mg/kg, jugular vein; for ED50: read-out: Effects on pressor response of 5-HT, ED50, pithed rats, jugular vein. As for the experimental part:
as §1

The test system of assay [2] is spontaneous hypertensive rats (SHR). As to the kind of experiment: Antihypertensive effect in spontaneous hypertensive rats (SHR). It counts as in vivo. Conditions: for change in vivo at 5 mg/kg / ED10: Rattus norvegicus, ip; for change in vivo at 5 mg/kg: 1 h. How it is done: Antihypertensive effect in spontaneous hypertensive rats (SHR)
The femoral artery of male SHR is cannulated in anaestesia for blood pressure recordings. After a stabilization period of 11/2 h after discontinuation of the anaesthesia initial blood pressure curves are recorded and the systolic (SAP)/diastolic (DAP) pressure determined (-20, -10, 0, min. p.i.) Test substance is injected i.p. and the pressure curve recorded for one hour. The change in SAP/DAP is calculated in percent at mean initial values at different times (10, 20, 30, 40, 50 and 60 minutes after injection). At least two SHR are used per dose level. The maximum change is used for estimation of the drug effect.

The subject of assay [3] is methylphenidate induced stereotypies. As to the kind of experiment: Methylphenidate Antagonism. Format: in vivo, mice. The settings on record: Mus musculus, ip, read-out: MePh antg. ED50, i.p., mice, 2 hours before methylphenidate 60 mg/kg s.c. How it is done: The experiments were made as described by Pedersen and Christensen (1972) Acta Pharmacol. et Toxicol. 31, 488-496.--Briefly, test compounds or saline were injected i.p. 2 hours before methylphenidate, 60 mg/kg s.c. 3 pairs of mice were used for each dose level. After methylphenidate injection the mice were placed in observation cages for one hour. The cages were placed on corrugated paper, the corrugation facing upwards.

Assay [4] relates to 1-5-HTP-induced head shakes. As to the kind of experiment: 1-5-HTP-induced head shakes. It counts as in vivo. Conditions: rats, 1-5-HTP 75 mg/kg i.p. after citalopram; for ED50: Rattus norvegicus, sc, read-out: 1-5-HTP-antg. ED50; for 1-5-HTP-antg. ED50: s.c. As for the experimental part: The rats were pretreated subcutaneously with test compound or saline simultaneously with or 90 min before injection of citalopram (10 mg/kg s.c.).
Each group consisted of 4-12 rats.

[5] abbreviates: read-out: Antihypertensive eff. SHR, max eff. in % of 5 mg/kg ip, DAP, 5 mg/kg ip, diastolic pressure (DAP), max change within one hour.
Setting [6] is: read-out: Antihypertensive eff. SHR, max eff. in % of 5 mg/kg ip, SAP, 5 mg/kg ip, systolic pressure (SAP), max change within one hour.
Setting [7] is: read-out: Antihypertensive eff. SHR, ED10 DAP.
The mark [8] stands for this setting: read-out: Antihypertensive eff. SHR, ED10 SAP.

T1 sequence (P14842 whole entry): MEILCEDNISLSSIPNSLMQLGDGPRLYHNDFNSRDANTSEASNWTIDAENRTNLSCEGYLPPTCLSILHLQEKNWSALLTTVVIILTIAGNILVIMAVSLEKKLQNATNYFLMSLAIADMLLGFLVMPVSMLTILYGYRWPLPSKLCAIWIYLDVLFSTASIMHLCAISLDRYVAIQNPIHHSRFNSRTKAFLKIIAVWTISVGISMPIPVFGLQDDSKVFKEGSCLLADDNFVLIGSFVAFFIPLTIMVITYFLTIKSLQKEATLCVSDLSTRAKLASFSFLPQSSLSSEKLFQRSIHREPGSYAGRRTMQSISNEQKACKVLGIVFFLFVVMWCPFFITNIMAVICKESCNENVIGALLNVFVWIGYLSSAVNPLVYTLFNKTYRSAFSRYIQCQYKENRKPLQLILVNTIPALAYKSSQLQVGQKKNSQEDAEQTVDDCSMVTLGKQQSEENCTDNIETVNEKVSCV

As a reminder, the IC50 is the concentration that inhibits the measured activity by half. For the molecule `Cc1ccc2c(c1)[C@H](N1CCN(CCN3CCOC3=O)CC1)C[C@H]2c1ccc(F)cc1` (relative stereo) [compound 9], the ED50 stood at 1.51 µmol/kg in assay [1], 0.02 µmol/kg with 5-HT pressor responses, 29 µmol/kg in assay [3] and 0.45 µmol/kg in assay [4]. The “Phenylephr. antg./5-HT antg. (ratio)” value in assay [1] is listed as 76. The IC50 on 5-HT2 receptors was determined as 21 nM. In addition, the change in vivo at 0.02 mg/kg in the assay on 5-HT pressor responses is -73%. The change in vivo at 5 mg/kg in assay [2] (setting [5]) was -41%; in assay [2] (setting [6]), -32%. Further, the ED10 in assay [2] (setting [7]) was found to be 3.5 µmol/kg; in assay [2] (setting [8]) it was 4.5 µmol/kg.

Consider `Fc1ccc([C@@H]2C[C@@H](N3CCN(CCN4CCNC4=S)CC3)c3cc(F)ccc32)cc1` (relative stereo) [compound 24, Trans-1-[3-(4-fluorophenyl)-6-fluoroindan-1-yl]-4-[2-(2-imidazolidinthion-1-yl)ethyl]piperazine], for which the ED50 in assay [1] stood at 3.7 µmol/kg; in the assay on 5-HT pressor responses it was 0.01 µmol/kg; in assay [3], 25 µmol/kg; in assay [4], 0.13 µmol/kg. Also, the “Phenylephr. antg./5-HT antg. (ratio)” value in assay [1] was 370. In addition, the IC50 at 5-HT2 receptors came to 5.2 nM. Also, the change in vivo at 0.02 mg/kg in the assay on 5-HT pressor responses is -88%. The values for the change in vivo at 5 mg/kg in assay [2] (setting [5]) and in assay [2] (setting [6]) were -20% and -10%, respectively.

Regarding `O=C1NCCN1CCN1CCN([C@@H]2C[C@@H](c3ccc(F)cc3)c3ccc(F)cc32)CC1` (single isomer, unassigned) [+2, (+)Trans-1-[3-(4-fluorophenyl)-6-fluoroindan-1-yl]-4-[2-(2-imidazolidinon-1-yl)ethyl]piperazine], the ED50 in assay [1] is 1.43 µmol/kg; in assay [3], above 61 µmol/kg. For the same molecule, in assay [1], the “Phenylephr. antg./5-HT antg. (ratio)” value amounted to 143. For the same molecule, the IC50 on 5-HT2 receptors came out at 4.3 nM. In addition, in the assay with 5-HT pressor responses (pithed rats, jugular vein), the “Effects on pressor response of 5-HT, ED50” value is 0.010 µmol/kg. Moreover, the “Antihypertensive eff. SHR, max eff. in % of 5 mg/kg ip, DAP” value in assay [2] (5 mg/kg ip, diastolic pressure (DAP), max change within one hour) is reported as -40%. In addition, in assay [2] (5 mg/kg ip, systolic pressure (SAP), max change within one hour), the “Antihypertensive eff. SHR, max eff. in % of 5 mg/kg ip, SAP” value is given as -31%. Besides, the ED10 came out at 0.8 µmol/kg in assay [2] (setting [7]) and 1.6 µmol/kg in assay [2] (setting [8]). Also, the “1-5-HTP-antg. ED50” value in assay [4] amounted to 0.10 µmol/kg.

Regarding `CN1CCN(CCN2CCN([C@@H]3C[C@@H](c4ccc(F)cc4)c4ccc(F)cc43)CC2)C1=O` (relative stereo) [compound 3], the ED50 is 14 µmol/kg in assay [1], 0.01 µmol/kg with 5-HT pressor responses, above 78 µmol/kg in assay [3] and 0.08 µmol/kg in assay [4]. The “Phenylephr. antg./5-HT antg. (ratio)” value in assay [1] amounted to 1400. In addition, the IC50 on 5-HT2 receptors turned out to be 3.4 nM. Further, the change in vivo at 0.02 mg/kg in the assay on 5-HT pressor responses was -87%. The change in vivo at 5 mg/kg is -13% in assay [2] (setting [5]) and -11% in assay [2] (setting [6]).

`O=C1NCCN1CCCN1CCN([C@@H]2C[C@@H](c3ccc(F)cc3)c3ccc(F)cc32)CC1` (relative stereo) [compound 14]: the ED50 was found to be 2.68 µmol/kg in assay [1], 0.031 µmol/kg in the assay with 5-HT pressor responses, 56 µmol/kg in assay [3] and 2 µmol/kg in assay [4]. The “Phenylephr. antg./5-HT antg. (ratio)” value in assay [1] came out at 86. Also, the IC50 on 5-HT2 receptors was 6.3 nM. Besides, in the assay with 5-HT pressor responses, the change in vivo at 0.02 mg/kg is -68%. Also, the change in vivo at 5 mg/kg is -19% in assay [2] (setting [5]) and -12% in assay [2] (setting [6]). Further, the “peripheral or central action” value in assay [2] (in words) is given as “mainly possess periferal action”.

`CSc1ccc2c(c1)[C@H](N1CCN(CCN3CCOC3=O)CC1)C[C@H]2c1ccc(F)cc1` (relative stereo) [compound 10, Trans-1-[3-(4-fluorophenyl)-6-methylthioindan-1-yl]-4-[2-(2-oxazolidinon-3-yl)ethyl]piperazine]: the ED50 in assay [1] was 9.4 µmol/kg; with 5-HT pressor responses, 0.034 µmol/kg; in assay [3], above 76 µmol/kg; in assay [4], 2.4 µmol/kg. Further, the “Phenylephr. antg./5-HT antg. (ratio)” value in assay [1] was determined as 276. Moreover, at 5-HT2 receptors, the IC50 is 6.6 nM. Further, in the assay with 5-HT pressor responses, the change in vivo at 0.02 mg/kg was -57%. For the same molecule, the change in vivo at 5 mg/kg was -22% in assay [2] (setting [5]) and -14% in assay [2] (setting [6]).

Turning to `Cc1ccc2c(c1)[C@H](N1CCN(CCN3CCNC3=O)CC1)C[C@H]2c1ccc(F)cc1` (relative stereo) [compound 4, Trans-1-[3-(4-fluorophenyl)-6-methylindan-1-yl]-4-[2-(2-imidazolidinon-1-yl)ethyl]piperazine], the ED50 in assay [1] is 2.02 µmol/kg; in the assay with 5-HT pressor responses, 0.017 µmol/kg; in assay [3] it was 27 µmol/kg; in assay [4], 0.13 µmol/kg. The “Phenylephr. antg./5-HT antg. (ratio)” value in assay [1] was 119. Besides, the IC50 on 5-HT2 receptors is 23 nM. Besides, in the assay on 5-HT pressor responses, the change in vivo at 0.02 mg/kg was -73%. The change in vivo at 5 mg/kg in assay [2] (setting [5]) was -32%; in assay [2] (setting [6]), -27%. The ED10 in assay [2] (setting [7]) is 2.4 µmol/kg; in assay [2] (setting [8]) it was 3.3 µmol/kg.

As to `CN1CCN(CCN2CCN([C@@H]3C[C@@H](c4ccc(F)cc4)c4ccc(F)cc43)CC2)C1=O` (single isomer, unassigned) [+3, (+)Trans-1-[3-(4-fluorophenyl)-6-fluoroindan-1-yl]-4-[2-(3-methyl-2-imidazolidinon-1-yl)ethyl]piperazine], the figures for the ED50 (in assay [1]; in the assay on 5-HT pressor responses; in assay [3]) were 2.25 µmol/kg, 0.004 µmol/kg and above 91 µmol/kg, respectively. Further, the “Phenylephr. antg./5-HT antg. (ratio)” value in assay [1] is reported as 563. Moreover, on 5-HT2 receptors, the IC50 was found to be 1.1 nM. In addition, the “Effects on pressor response of 5-HT, % eff. of 0.02 mg/kg” value with 5-HT pressor responses (pithed rats, 0.02 mg/kg, jugular vein) is reported as -89%. Also, the figures for the change in vivo at 5 mg/kg in assay [2] (setting [5]) and in assay [2] (setting [6]) were -52% and -38%, respectively. Besides, the “1-5-HTP-antg. ED50” value in assay [4] amounted to 0.023 µmol/kg.
